Experiments:
[1] = xn = mol fraction of the nth substance listed; settings: Liquid, Vibrating tube method
[2] = Liquid; for mass density: Vibrating tube method; for vapor or sublimation pressure: Ebulliometric method (Recirculating still)
[3] = refractive index (Na D-line) (dimensionless); settings: 298.15 K; 101.33 kPa; Liquid; Standard Abbe refractometry

CCCCCCCCC [nonane] + CCC(=O)OC
[1], x2 = 0
Settings	mass density [kg/m3]
288.15 K	721.65
298.15 K	713.85
308.15 K	705.96
318.15 K	698.06
328.15 K	690.17

CCCCCCC [heptane] + CCC(=O)OC
[1], x2 = 0
Settings	mass density [kg/m3]
288.15 K	688.16
298.15 K	679.62
308.15 K	670.96
318.15 K	662.33
328.15 K	653.61

CCCCCCC [heptane]
[2]
Settings	mass density [kg/m3]	vapor or sublimation pressure [kPa]
288.15 K	688.16	–
298.15 K	679.62	–
308.15 K	670.96	–
318.15 K	662.33	–
328.15 K	653.61	–
371.38 K	–	101.32

Settings	refractive index
[3]	1.3853

CCCCC [pentane]
[2]
Settings	mass density [kg/m3]	vapor or sublimation pressure [kPa]
288.15 K	630.78	–
298.15 K	620.9	–
298.91 K	–	70
299.82 K	–	72.5
300.77 K	–	75
301.65 K	–	77.5
302.52 K	–	80
303.38 K	–	82.5
304.22 K	–	85
305.02 K	–	87.5
305.81 K	–	90
306.62 K	–	92.5
307.37 K	–	95
308.12 K	–	97.5
308.87 K	–	100
309.23 K	–	101.32
310.28 K	–	105
311.64 K	–	110
312.97 K	–	115
314.26 K	–	120
315.5 K	–	125
316.7 K	–	130
317.87 K	–	135
319.01 K	–	140
320.11 K	–	145
321.17 K	–	150
322.24 K	–	155
323.25 K	–	160
324.26 K	–	165
325.24 K	–	170
326.18 K	–	175
327.12 K	–	180
328.03 K	–	185
328.93 K	–	190
329.8 K	–	195
330.66 K	–	200
331.51 K	–	205
332.34 K	–	210
333.15 K	–	215
333.95 K	–	220
334.73 K	–	225
335.5 K	–	230
336.28 K	–	235
337.02 K	–	240
337.75 K	–	245
338.47 K	–	250
339.19 K	–	255
339.89 K	–	260
340.59 K	–	265
341.27 K	–	270
341.94 K	–	275
342.6 K	–	280

Settings	mass density [kg/m3]
[2], 298.15 K, 101 kPa	620.91

Settings	refractive index
[3]	1.3547

CCCCCCCCC [nonane]
[2]
Settings	mass density [kg/m3]	vapor or sublimation pressure [kPa]
288.15 K	721.65	–
298.15 K	713.85	–
308.15 K	705.96	–
318.15 K	698.06	–
328.15 K	690.17	–
423.9 K	–	101.32

Settings	refractive index
[3]	1.4032

CCCCCCC [heptane] + CCOC(=O)CC
[1], x2 = 0
Settings	mass density [kg/m3]
288.15 K	688.16
298.15 K	679.62
308.15 K	670.96
318.15 K	662.33
328.15 K	653.61

CCC(=O)OC [methyl propanoate] + CCCCC
mass density [kg/m3], [1], 101 kPa
Settings	288.15 K	298.15 K
x1 = 0.0597	644.23	–
x1 = 0.0641	–	635.16
x1 = 0.0925	651.9	–
x1 = 0.0938	–	642.1
x1 = 0.1482	–	654.98
x1 = 0.1507	665.97	–
x1 = 0.204	679.21	–
x1 = 0.2099	–	670.19
x1 = 0.2574	–	682.36
x1 = 0.2614	693.95	–
x1 = 0.3127	707.38	–
x1 = 0.3135	–	696.99
x1 = 0.3382	714.27	–
x1 = 0.3389	–	703.72
x1 = 0.3927	729.16	–
x1 = 0.3942	–	718.75
x1 = 0.442	743.09	–
x1 = 0.4459	–	733.12
x1 = 0.4985	759.2	–
x1 = 0.4999	–	748.56
x1 = 0.5461	773.25	–
x1 = 0.5478	–	762.56
x1 = 0.5921	–	775.9
x1 = 0.5926	787.12	–
x1 = 0.6407	801.96	–
x1 = 0.6434	–	791.33
x1 = 0.6898	–	805.83
x1 = 0.69	817.19	–
x1 = 0.7559	–	826.88
x1 = 0.7581	839.01	–
x1 = 0.8051	–	842.74
x1 = 0.8072	855.11	–
x1 = 0.8487	868.74	–
x1 = 0.8499	–	857.54
x1 = 0.8891	882.39	–
x1 = 0.8915	–	871.51
x1 = 0.9538	904.73	–
x1 = 0.9601	–	894.98
x1 = 1	921.21	909.1

CCCCC [pentane] + CCC(=O)OC
[1], 101 kPa, x2 = 0
Settings	mass density [kg/m3]
288.15 K	630.78
298.15 K	620.91

CCOC(=O)CC [ethyl propanoate] + CCCCC
mass density [kg/m3], [1]
Settings	288.15 K	298.15 K
x1 = 0.0503	643.39	–
x1 = 0.0545	–	634.55
x1 = 0.1013	–	646.47
x1 = 0.1017	656.5	–
x1 = 0.1511	669.25	–
x1 = 0.1538	–	659.85
x1 = 0.2025	682.62	–
x1 = 0.2051	–	673.1
x1 = 0.254	–	685.81
x1 = 0.2551	696.41	–
x1 = 0.3012	708.53	–
x1 = 0.3038	–	698.8
x1 = 0.3525	722.09	–
x1 = 0.3594	–	713.37
x1 = 0.3947	733.28	–
x1 = 0.4062	–	725.7
x1 = 0.4496	747.92	–
x1 = 0.4575	–	739.37
x1 = 0.5009	761.7	–
x1 = 0.5083	–	752.81
x1 = 0.5519	775.33	–
x1 = 0.56	–	766.57
x1 = 0.5987	787.9	–
x1 = 0.606	–	778.84
x1 = 0.6449	800.24	–
x1 = 0.6559	–	792.17
x1 = 0.6974	814.34	–
x1 = 0.7061	–	805.64
x1 = 0.7488	828.17	–
x1 = 0.7498	–	817.26
x1 = 0.7974	841.13	–
x1 = 0.8007	–	830.93
x1 = 0.8477	854.65	–
x1 = 0.8535	–	844.98
x1 = 0.8951	867.4	–
x1 = 0.9054	–	858.85
x1 = 0.9482	881.6	–
x1 = 0.9511	–	871.06
x1 = 1	895.58	884.15

CCCCC [pentane] + CCOC(=O)CC
[1], x2 = 0
Settings	mass density [kg/m3]
288.15 K	630.78
298.15 K	620.9

CCOC(=O)CC [ethyl propanoate]
[2]
Settings	mass density [kg/m3]	vapor or sublimation pressure [kPa]
288.15 K	895.58	–
298.15 K	884.15	–
308.15 K	872.62	–
318.15 K	861.08	–
328.15 K	849.41	–
348.07 K	–	45
349.55 K	–	47.5
350.96 K	–	50
352.34 K	–	52.5
353.66 K	–	55
354.91 K	–	57.5
356.15 K	–	60
357.32 K	–	62.5
358.48 K	–	65
359.57 K	–	67.5
360.66 K	–	70
361.72 K	–	72.5
362.74 K	–	75
363.71 K	–	77.5
364.69 K	–	80
365.63 K	–	82.5
366.55 K	–	85
367.47 K	–	87.5
368.35 K	–	90
369.21 K	–	92.5
370.06 K	–	95
370.87 K	–	97.5
371.73 K	–	100
372.09 K	–	101.32
372.18 K	–	101.32
373.31 K	–	105
374.84 K	–	110
376.29 K	–	115
377.7 K	–	120
379.08 K	–	125
380.4 K	–	130
381.67 K	–	135
382.91 K	–	140
384.15 K	–	145
385.32 K	–	150
386.47 K	–	155
387.6 K	–	160
388.69 K	–	165
389.77 K	–	170
390.81 K	–	175
391.83 K	–	180
392.85 K	–	185
393.81 K	–	190
394.77 K	–	195
395.72 K	–	200
396.64 K	–	205
397.55 K	–	210
398.43 K	–	215
399.31 K	–	220
400.17 K	–	225
401 K	–	230
401.83 K	–	235
402.65 K	–	240
403.46 K	–	245
404.25 K	–	250
405.04 K	–	255
405.79 K	–	260
406.56 K	–	265
407.3 K	–	270
408.03 K	–	275
408.75 K	–	280

Settings	refractive index
[3]	1.3811

CCC(=O)OC [methyl propanoate]
[2]
Settings	mass density [kg/m3]	vapor or sublimation pressure [kPa]
288.15 K	921.21	–
298.15 K	909.1	–
308.15 K	896.91	–
318.15 K	884.71	–
328.15 K	872.22	–
335.15 K	–	55
336.38 K	–	57.5
337.53 K	–	60
338.61 K	–	62.5
339.76 K	–	65
340.79 K	–	67.5
341.81 K	–	70
342.79 K	–	72.5
343.75 K	–	75
344.68 K	–	77.5
345.59 K	–	80
346.49 K	–	82.5
347.35 K	–	85
348.2 K	–	87.5
349.03 K	–	90
349.83 K	–	92.5
350.62 K	–	95
352.34 K	–	100
352.72 K	–	101.32
352.75 K	–	101.32
353.81 K	–	105
355.23 K	–	110
356.53 K	–	115
357.87 K	–	120
359.16 K	–	125
360.42 K	–	130
361.65 K	–	135
362.8 K	–	140
363.97 K	–	145
365.05 K	–	150
366.15 K	–	155
367.22 K	–	160
368.27 K	–	165
369.26 K	–	170
370.25 K	–	175
371.22 K	–	180
372.2 K	–	185
373.12 K	–	190
374.01 K	–	195
374.9 K	–	200
375.77 K	–	205
376.63 K	–	210
377.52 K	–	215
378.3 K	–	220
379.14 K	–	225
379.96 K	–	230
380.72 K	–	235
381.51 K	–	240
382.25 K	–	245
383.03 K	–	250
383.74 K	–	255
384.47 K	–	260
385.21 K	–	265
385.87 K	–	270
386.61 K	–	275
387.28 K	–	280

Settings	refractive index
[3]	1.3743

CCCCCCCCC [nonane] + CCOC(=O)CC
[1], x2 = 0
Settings	mass density [kg/m3]
288.15 K	721.65
298.15 K	713.85
308.15 K	705.96
318.15 K	698.06
328.15 K	690.17

Reference: the NIST ThermoML archive (doi:10.1021/je4009415)
